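Assay format: 96-well plates, 48-hour exposure. The concentration for 50% growth inhibition is given as GI50.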 Calls of active or inactive are those of the source. No stated cut-off is given here; in the data, active = GI50 up to about 1.1 µM and inactive = higher.
Columns and labels:
Assay in all cases: growth of human tumour cells (NCI), 48 h
[1] = system: LOX IMVI
[2] = system: HOP-92
[3] = system: A549
[4] = system: UACC-257
[5] = system: DLD-1
[6] = system: OVCAR-4
[7] = system: DMS-273
[8] = system: SK-MEL-5
[9] = system: 786-0
[10] = system: NCI-H226
[11] = system: KM-20L2
[12] = system: SF-268
[13] = system: UACC-62
[14] = system: ACHN
[15] = system: RPMI-8226
[16] = system: CAKI-1
[17] = system: DMS-114
[18] = system: NCI-H522
[19] = system: MOLT-4
[20] = system: UO-31
[21] = system: SK-OV-3
[22] = system: HCT-116
[23] = system: SF-539
[24] = system: KM12
[25] = system: HCT-15
[26] = system: Malme-3M
[27] = system: HCC 2998
[28] = system: CCRF-CEM
[29] = system: XF498
[30] = system: NCI-H23
[31] = system: HT-29
[32] = system: A498
[33] = system: IGROV-1
[34] = system: OVCAR-8
[35] = system: OVCAR-5
[36] = system: LXFL 529
[37] = system: K562
[38] = system: COLO 205
[39] = system: SNB-78
[40] = system: HOP-18
[41] = system: OVCAR-3
[42] = system: SR
[43] = system: M19-MEL
[44] = system: SK-MEL-28
[45] = system: SF-295
[46] = system: U-251
[47] = system: HL-60
[48] = system: M14
[49] = system: SW-620
[50] = system: SNB-19
[51] = system: NCI-H460
[52] = system: SN12C
[53] = system: SNB-75
[54] = system: SK-MEL-2
[55] = system: HOP-62
[56] = system: TK-10
[57] = system: EKVX

COc1cccc2c1c1ccc3c(c1n2C)C(=O)C=CC3=O
GI50 [1]: 16.9 µM (inactive)
GI50 [2]: 13.1 µM (inactive)
GI50 [3]: > 100 µM (inactive)
GI50 [4]: 14.9 µM (inactive)
GI50 [5]: 16.4 µM (inactive)
GI50 [6]: 17.5 µM (inactive)
GI50 [7]: 16 µM (inactive)
GI50 [8]: 37.8 µM (inactive)
GI50 [9]: 17.3 µM (inactive)
GI50 [10]: 64.3 µM (inactive)
GI50 [11]: 63.4 µM (inactive)
GI50 [12]: 17.8 µM (inactive)
GI50 [13]: 17.1 µM (inactive)
GI50 [14]: 15 µM (inactive)
GI50 [15]: 2.81 µM (inactive)
GI50 [16]: 3.15 µM (inactive)
GI50 [17]: 20 µM (inactive)
GI50 [18]: 3.89 µM (inactive)
GI50 [19]: 2.64 µM (inactive)
GI50 [20]: 18.6 µM (inactive)
GI50 [21]: > 100 µM (inactive)
GI50 [22]: 14.2 µM (inactive)
GI50 [23]: 16.6 µM (inactive)
GI50 [24]: 78 µM (inactive)
GI50 [25]: 17.7 µM
GI50 [26]: 13.9 µM (inactive)
GI50 [27]: 48.4 µM (inactive)
GI50 [28]: 0.615 µM (active)
GI50 [29]: 15.8 µM (inactive)
GI50 [30]: 16.1 µM (inactive)
GI50 [31]: 2.43 µM (inactive)
GI50 [32]: > 100 µM (inactive)
GI50 [33]: 25.5 µM (inactive)
GI50 [34]: 15.3 µM (inactive)
GI50 [35]: 41.9 µM (inactive)
GI50 [36]: 12 µM (inactive)
GI50 [37]: 3.61 µM (inactive)
GI50 [38]: 6.15 µM (inactive)
GI50 [39]: 18.7 µM (inactive)
GI50 [40]: 14.1 µM (inactive)
GI50 [41]: 16.3 µM (inactive)
GI50 [42]: 2.4 µM (inactive)
GI50 [43]: 1.24 µM (inactive)
GI50 [44]: 19 µM (inactive)
GI50 [45]: > 100 µM (inactive)
GI50 [46]: 48.5 µM (inactive)
GI50 [47]: 1.51 µM (inactive)
GI50 [48]: 14.6 µM (inactive)
GI50 [49]: 12.1 µM (inactive)
GI50 [50]: > 100 µM (inactive)
GI50 [51]: 48.4 µM (inactive)
GI50 [52]: 20.3 µM (inactive)
GI50 [53]: 0.695 µM (active)
GI50 [54]: 16.9 µM (inactive)
GI50 [55]: > 100 µM (inactive)
GI50 [56]: 18.9 µM (inactive)

CCOC(=O)C(=O)Nc1cccc(C)c1C
GI50 [2]: > 100 µM (inactive)
GI50 [3]: > 100 µM (inactive)
GI50 [4]: > 100 µM (inactive)
GI50 [5]: > 100 µM (inactive)
GI50 [6]: > 100 µM (inactive)
GI50 [7]: > 100 µM (inactive)
GI50 [8]: > 100 µM (inactive)
GI50 [10]: > 100 µM (inactive)
GI50 [11]: > 100 µM (inactive)
GI50 [12]: > 100 µM (inactive)
GI50 [13]: > 100 µM (inactive)
GI50 [14]: > 100 µM (inactive)
GI50 [15]: > 100 µM (inactive)
GI50 [16]: > 100 µM (inactive)
GI50 [17]: > 100 µM (inactive)
GI50 [18]: > 100 µM (inactive)
GI50 [19]: > 100 µM (inactive)
GI50 [57]: > 100 µM (inactive)
GI50 [20]: > 100 µM (inactive)
GI50 [21]: > 100 µM (inactive)
GI50 [22]: > 100 µM (inactive)
GI50 [23]: > 100 µM (inactive)
GI50 [24]: > 100 µM (inactive)
GI50 [25]: > 100 µM
GI50 [26]: > 100 µM (inactive)
GI50 [27]: > 100 µM (inactive)
GI50 [28]: > 100 µM (inactive)
GI50 [29]: > 100 µM (inactive)
GI50 [30]: > 100 µM (inactive)
GI50 [31]: > 100 µM (inactive)
GI50 [32]: > 100 µM (inactive)
GI50 [33]: > 100 µM (inactive)
GI50 [34]: > 100 µM (inactive)
GI50 [35]: > 100 µM (inactive)
GI50 [36]: > 100 µM (inactive)
GI50 [37]: > 100 µM (inactive)
GI50 [38]: > 100 µM (inactive)
GI50 [39]: > 100 µM (inactive)
GI50 [40]: > 100 µM (inactive)
GI50 [41]: > 100 µM (inactive)
GI50 [42]: > 100 µM (inactive)
GI50 [43]: > 100 µM (inactive)
GI50 [44]: > 100 µM (inactive)
GI50 [45]: > 100 µM (inactive)
GI50 [46]: > 100 µM (inactive)
GI50 [47]: > 100 µM (inactive)
GI50 [48]: > 100 µM (inactive)
GI50 [49]: > 100 µM (inactive)
GI50 [50]: > 100 µM (inactive)
GI50 [51]: > 100 µM (inactive)
GI50 [52]: > 100 µM (inactive)
GI50 [53]: > 100 µM (inactive)
GI50 [54]: > 100 µM (inactive)
GI50 [55]: > 100 µM (inactive)
GI50 [56]: > 100 µM (inactive)
